US20230127839A1, “COMPOUNDS AND COMPOSITIONS FOR TREATING CONDITIONS ASSOCIATED WITH STING ACTIVITY” (IFM Due, Inc., priority 2019, published 2023)

Target: T1, hSTING (Homo sapiens, UniProt Q86WV6, G230A/H232R/R293Q/R71H)
T1 construct: host or cells: THP1-Dual KO-IFNAR2 cells
Assay: STING reporter assay (luciferase) in THP1-Dual KO-IFNAR2 cells stimulated with 2'3'cGAMP
Assay type: cell-based
Conditions: 2'3'cGAMP 15 μM, 24 h, luciferase reporter activity
In short: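 THP1-Dual KO-IFNAR2 cells (2×10E6 cells/mL) exposed to compounds at 0.0017-100 μM final, then stimulated with 2′3′cGAMP (15 μM final) delivered by Lipofectamine 2000 transfection. After 24 h at 37° C, secreted luciferase in supernatant read by QUANTI-Luc luminescence; EC50 calculated.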

T1 sequence (Q86WV6 whole entry R71H/G230A/H232R/R293Q): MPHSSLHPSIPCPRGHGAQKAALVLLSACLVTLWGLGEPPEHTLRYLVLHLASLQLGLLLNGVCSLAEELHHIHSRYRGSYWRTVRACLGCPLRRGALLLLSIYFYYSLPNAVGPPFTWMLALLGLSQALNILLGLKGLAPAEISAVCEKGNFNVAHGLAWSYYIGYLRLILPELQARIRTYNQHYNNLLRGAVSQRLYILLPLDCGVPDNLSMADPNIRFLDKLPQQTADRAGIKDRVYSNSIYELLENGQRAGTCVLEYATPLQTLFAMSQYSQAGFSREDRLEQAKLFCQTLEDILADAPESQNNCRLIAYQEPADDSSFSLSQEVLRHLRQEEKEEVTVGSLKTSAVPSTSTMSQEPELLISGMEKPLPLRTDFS

Work on `O=C(Nc1ccc(C2CCC2)cc1)Nc1c[nH]c2ccc(Cl)cc12` [Compound 300, 1-(5-chloro-1H-indol-3-yl)-3-(4-cyclobutylphenyl)urea] yielded an EC50 of 0.04 to 0.2 µM.
